In patent US9114119B2, “Use of serine palmitoyl transferase inhibitors for preventing and delaying inherited retinal degenerations and compositions thereof” (Universita' degli Studi di Milano, priority 2009, dated 2015):

Assays:
[1] = system: photoreceptors of rd10 mice; conditions: mouse, in vivo
Description: The functional recovery of the photoreceptors was studied by recording a flash electroretinogram (ERG), a technique widely used to test the retinal physiology of human patients, especially those suffering from RP.

[2] = system: endogenous ceramide in the retina of wt mice; experiment: Retinal endogenous ceramide levels (diacylglycerol kinase test) after single intravitreal injection, wt mice; format: in vivo, mouse; conditions: single intravitreal injection 500 nanoliters 188 mM at P19, retinas isolated at P21
Protocol: (§1) The levels of the sphingolipid endogenous ceramide were tested after isolation of the retina from anaesthetised rd10 mutant and wild-type (wt) mice of various age groups. The isolated retinas were treated for lipid extraction, and the total endogenous ceramide/inorganic phosphate ratio was determined with the diacylglycerol kinase test.
(§2) Single intravitreal injections of 500 nanoliters of myriocin (188 mM) were administered to the right eye of rd10 and wt mice aged P19. The vehicle alone (DMSO) was injected into the left eye of the same animals. The left and right retinas were isolated at P21, and treated separately for the biochemical ceramide test as explained above.

[3] = system: rd10 and wt mice; experiment: Toxicity studies of intraocular injections; format: in vivo, mouse
Description: It should be noted that myriocin has only rarely been used in vivo to date, and never injected intraocularly. The dose was chosen on the basis of the available literature on cultured cells, calculating a dilution of ⅞ times, due to the vitreous humour. A time window was selected for intraocular administration which preceded the peak death of the apoptotic photoreceptors, for the crucial reason of preventing the majority of photoreceptors from entering the apoptotic cycle.

[4] = system: pyknotic photoreceptors of rd10 mice; experiment: Pyknotic photoreceptor count after intravitreal injection; format: in vivo, mouse
Protocol: as §2
The animals injected at P19 were collected at P21, and their eyes were enucleated and fixed. The left and right retinas were isolated, stained with fluorescent DNA-binding molecules, and mounted on slides. The external nuclear layer which contains the photoreceptor cores was sampled under the confocal microscope at regular intervals along the four retinal meridians. The images were exported to a computerised workstation, and the pyknotic photoreceptors were counted in each scanned field. The total number of pyknotic photoreceptors was calculated for each pair of treated and control retinas.

[5] = system: photoreceptors of rd10 mice; experiment: Rows of photoreceptor nuclei in the outer nuclear layer (ONL) after nanosphere eyedrops; format: in vivo; conditions: rd10 mice aged P24, MYR-SLN treated vs control mouse (FIG. 1a)
Description: Following ERG recordings, animals were enucleated, their eyes fixed and sectioned and retinal sections stained with fluorescent nuclear dyes to evaluate the thickness of the outer nuclear layer (ONL) and the overall retinal morphology.
A quantitative analysis of the average number of rows of nuclei in the ONL of MYR-SLN and U-SLN (Unloaded-Solid Lipid Nanospheres) treated mice is given in FIG. 1b.

[6] = system: retinal morphology of rd10, wt and Thy1-GFP mice; conditions: mouse, in vivo
[7] = system: endogenous ceramide in the retina of rd10 mutant mice; experiment: Retinal endogenous ceramide levels (diacylglycerol kinase test) after single intravitreal injection, rd10 mice; format: in vivo, mouse; conditions: single intravitreal injection 500 nanoliters 188 mM at P19, retinas isolated at P21
Protocol: as §1, §2

For `CCCCCCC(=O)CCCCCC/C=C/C[C@@H](O)[C@H](O)[C@@](N)(CO)C(=O)O` [myriocin], the “recovery of ERG response” value [1] was “no recovery of ERG response/reaction”, the retinal ceramide levels [2] was “did not significantly reduce” and the “adverse effects of intraocular injections” value ([3]; rd10 or wt mice) was “do not cause adverse effects”. For the same compound, the “inflammatory response symptoms or increased ocular reactivity” value ([3]; treated animals, intraocular injection) was “no general or local inflammatory response symptoms”, the “reduction of photoreceptor death rate (pyknotic photoreceptor count)” value ([4]; rd10 mice injected at P19, collected at P21, vs DMSO eye, n=17) was “approx. 50%” and the “number of pyknotic (dying) photoreceptors” value ([4]; rd10 mutant mice, intravitreal injection) was “marked reduction”. The “number of preserved nuclear rows in the ONL” value [5] was “significantly higher”, the “morphology of ganglion cells and retinal stratification” value [6] was “excellent maintenance of the morphology of the ganglion cell and structure” and the retinal morphology [6] was “normal retinal morphologies”. The “retinal ceramide levels vs control (DMSO) eyes” value [7] was “Significantly lower ceramide levels”.
